US4732989A, “Substituted alkyl imidazole derivatives” (G. D. Searle & Co., priority 1986, dated 1988)
Converted amounts (≈) assume the structure as drawn. Structures can show the parent of a compound that is named as a salt.

Legend:
[1] = tested on: B. Fragilis NCTC 10581; assay: MIC/MBC anti-anaerobic screen, strain A; format: cell-based, Bacteroides fragilis; conditions: 37° C.; for MIC: Bacteroides fragilis, NCTC10581, 48 h, read-out: Minimum Inhibitory Concentration (MIC)
Protocol: (§1) The screening panel utilized in this Example consisted of 5 strains of Bacteroides fragilis. All assays were carried out in 96 well microtitre plates. If an isolate was obtained from either a culture collection or clinical source, the isolate was immediately inoculated into Wilkins-Chalgren broth (Oxoid) and incubated at 37° C. in an anaerobic chamber in an atmosphere of 85% nitrogen, 10% carbon dioxide, and 5% hydrogen for 48 hours. At the end of this time, the viable count was about 10^12 organisms/ml broth. A 1 ml aliquot of each culture was placed in an ampoule and quick frozen in an acetone-dry-ice mixture and stored in liquid nitrogen. When an inoculum was utilized in an assay, one of the ampoules was thawed and diluted with fresh broth to yield a suspension having a count of 5×10^5 organisms/ml. 100 ul of the suspension was inoculated into each well of the microtitre plate. 2 mg of the test compound was dissolved on 0.2 ml of a suitable solvent such as dimethylsulphoxide, polyethylene glycol 200 or methanol. […] After addition of the test solution, the final inoculum level is 10^5 cells/ml. The plates were incubated for 48 hours at 37° C. in the anaerobic chamber. The Minimum Inhibitory Concentration (MIC) was read visually. The MIC is defined as the lowest concentration at which there is no detectable growth. The Minimum Bactericidal Concentration (MBC) was determined by taking a 50 ul aliquot from each well and placing it in fresh medium.

[2] = tested on: B. Fragilis WS-1; assay: MIC/MBC anti-anaerobic screen, strain E; format: cell-based; conditions: Bacteroides fragilis, 48 h; for MIC: 37° C., anaerobic, read-out: Minimum Inhibitory Concentration (MIC)
Protocol: as §1

[3] = tested on: B. Fragilis NCTC 9344; assay: MIC/MBC anti-anaerobic screen, strain C; format: cell-based; conditions: Bacteroides fragilis, NCTC9344, 48 h, 37° C., read-out: Minimum Inhibitory Concentration (MIC)
Protocol: as §1

[4] = tested on: B. Fragilis ATCC 11295; assay: MIC/MBC anti-anaerobic screen, strain D; format: cell-based; conditions: Bacteroides fragilis, ATCC11295, 48 h, 37° C., read-out: Minimum Inhibitory Concentration (MIC)
Protocol: as §1

[5] = tested on: B. Fragilis NCTC 9343; assay: MIC/MBC anti-anaerobic screen, strain B; format: cell-based; conditions: Bacteroides fragilis, NCTC9343, 48 h, 37° C., read-out: Minimum Inhibitory Concentration (MIC)
Protocol: as §1

SMILES	MIC [2] [µg/mL]	MIC [3] [µg/mL]	MIC [4] [µg/mL]	MIC [1] [µg/mL]	further results
Cc1ncc([N+](=O)[O-])n1CCO [Metronidazole, reference compound]	–	–	–	–	Minimum Inhibitory Concentration (MIC) ([1]; 48 hours): 0.8 mg/L
Cc1nccn1CC(C1=NCCN1c1ccc(Cl)cc1Cl)c1ccccc1 (centres unmarked) [Example 21, 1-(2,4-Dichlorophenyl)-4,5-dihydro-2-[2-(2-methylimidazol-1-yl)-1-phenylethyl]imidazole dihydrochloride]	0.8	0.8	3.1	–	–
Clc1ccc(CN2CCN=C2C(Cn2cccn2)c2ccccc2)c(Cl)c1 (centres unmarked) [Example 16, 1-(2,4-Dichlorophenylmethyl)-4,5-dihydro-2-[1-phenyl-2-(pyrazol-1-yl)ethyl]imidazole dihydrochloride]	–	3.1	–	2.5	–
Clc1ccc(N2CCN=C2C(Cn2ccnc2)c2ccccc2)c(Cl)c1 (centres unmarked) [Example 3, 1-(2,4-Dichlorophenyl)-4,5-dihydro-2-[2-(imidazol-1-yl)-1-phenylethyl]imidazole hydrochloride]	–	0.8	0.8	0.8	MBC ([2]; 99.9% reduction in viable count, read-out: Minimum Bactericidal Concentration (MBC)): 3.1 µg/mL
Brc1ccc(N2CCN=C2C(Cn2ccnc2)c2ccccc2)c(Br)c1 (centres unmarked) [Example 2, 1-(2,4-Dibromophenyl)-4,5-dihydro-2-[2-(imidazol-1-yl)-1-phenylethyl]imidazole dihydrochloride]	0.8	–	–	0.8	MIC [5]: 3.1 µg/mL
CCCCCCCCN1CCN=C1C(Cn1ccnc1)c1ccccc1 (centres unmarked) [Example 19, 4,5-Dihydro-2-[2-(imidazol-1-yl)-1-phenylethyl]-1-n-octylimidazole dihydrochloride]	–	–	–	–	MIC [5]: 3.1 µg/mL
CCCCCCCCCCN1CCN=C1C(Cn1ccnc1)c1ccccc1.Cl.Cl (centres unmarked) [Example 26, 1-n-Decyl-4,5-dihydro-2-[2-(imidazol-1-yl)-1-phenylethyl]imidazole dihydrochloride]	3.1	3.1	3.1	–	–
CSc1nccn1CC(C1=NCCN1c1ccc(Cl)cc1Cl)c1ccccc1 (centres unmarked) [Example 22, 1-(2,4-Dichlorophenyl)-4,5-dihydro-2-[1-phenyl-2-(2-thiomethylimidazol-1-yl)ethyl]imidazole dihydrochloride]	3.1	3.1	3.1	–	–
Clc1ccc(CN2CCN=C2C(Cn2ccnc2)c2ccccc2)c(Cl)c1 (centres unmarked) [Example 15, 1-(2,4-Dichlorophenylmethyl)-4,5-dihydro-2-[2-(imidazol-1-yl)-1-phenylethyl]imidazole]	–	3.1 (≈ 7.76 µM)	3.1 (≈ 7.76 µM)	3.1 (≈ 7.76 µM)	MIC [5]: 3.1 µg/mL (≈ 7.76 µM)
CC1=NCCN1CC(C1=NCCN1c1ccc(Cl)cc1Cl)c1ccccc1 (centres unmarked) [Example 23, 1-(2,4-Dichlorophenyl)-4,5-dihydro-2-[2-(4,5-dihydro-2-methylimidazol-1-yl)-1-phenylethyl]imidazole dihydrochloride]	0.8	–	–	–	–
Clc1ccccc1N1CCN=C1C(Cn1ccnc1)c1ccccc1 (centres unmarked) [Example 1, 1-(2-Chlorophenyl)-4,5-dihydro-2[2-(imidazol-1-yl)-1-phenylethyl)imidazole]	–	–	–	3.1 (≈ 8.84 µM)	–
